Experimental data taken from patent US20240415124A1, “HERBICIDAL COMPOSITION CONTAINING 3-(2-CHLORO-4-FLUORO-5-(3-METHYL-2,6-DIOXO-4-TRIFLUOROMETHYL-3,6-DIHYDROPYRIMIDIN-1(2H)-YL)PHENYL)-5-METHYL-4,5-DIHYDROISOXAZOLE-5-CARBOXYLIC ACID ETHYL ESTER AND GLUFOSINATE-P AND USE THEREOF” (NANTONG JIANGSHAN AGROCHEMICAL & CHEMICALS CO., LTD., priority 2022, published 2024).

System: Erigeron canadensis
Assay: Laboratory activity determination test (greenhouse pot test, stem and leaf spray, fresh weight inhibition, Gowing method)
Type: in vivo
Conditions: single pesticide
Experimental: (1) Test objective: Inhibitory effects of 3-(2-chloro-4-fluoro-5-(3-methyl-2,6-dioxo-4-trifluoromethyl-3,6-dihydropyrimidin-1(2H)-yl)phenyl)-5-methyl-4,5-dihydroisoxazole-5-carboxylic acid ethyl ester, glufosinate-P and different mixed compositions of the two pesticides on Erigeron canadensis under potting conditions in a greenhouse are determined, and a combined action of the two pesticides is evaluated. […] After a pesticide liquid was air-dried, a test material was placed in a greenhouse for cultivation. […] A method for evaluating the combined action of the two pesticides after compounding was used with reference to a Gowing method in Pesticides Guidelines for Laboratory Bioactivity Tests: Determining Combined Action of Mixtures.
Fresh weight inhibition rate %=(fresh weight of a control group—fresh weight of a treatment group)/fresh weight of a control group*100.
When E-E0 is greater than −10 and less than 10, an additive effect is achieved. When E-E0 is equal to or less than −10, an antagonistic effect is achieved.

CCOC(=O)C1(C)CC(c2cc(-n3c(=O)cc(C(F)(F)F)n(C)c3=O)c(F)cc2Cl)=NO1 (stereo not shown) [3-(2-chloro-4-fluoro-5-(3-methyl-2,6-dioxo-4-trifluoromethyl-3,6-dihydropyrimidin-1(2H)-yl)phenyl)-5-methyl-4,5-dihydroisoxazole-5-carboxylic acid ethyl ester]
Measured control efficacy E (%) (dosage 1 g a.i./mu): 33.82% | Measured control efficacy E (%) (dosage 2 g a.i./mu): 44.46% | Measured control efficacy E (%) (dosage 3 g a.i./mu): 72.89% | Measured control efficacy E (%) (dosage 4 g a.i./mu): 80.22% | Measured control efficacy E (%) (dosage 5 g a.i./mu): 89.09%

CP(=O)(O)CC[C@H](N)C(=O)O [Glufosinate-P]
Measured control efficacy E (%) (dosage 8 g a.i./mu): 21.63% | Measured control efficacy E (%) (dosage 12 g a.i./mu): 51.94% | Measured control efficacy E (%) (dosage 16 g a.i./mu): 67.92% | Measured control efficacy E (%) (dosage 20 g a.i./mu): 74.07% | Measured control efficacy E (%) (dosage 24 g a.i./mu): 78.07%
